# Experimental data reported in US11492335B2, “Aryl or heteroaryl triazolone derivatives or salts thereof, or pharmaceutical compositions comprising the same” (YUHAN CORPORATION, priority 2018, dated 2022).
# Where two headings read alike, the source gives them in different places.
# Key:
# Format in all cases: biochemical
# [1] = target: T1, recombinant human DAO (diamine oxidase) (Homo sapiens, UniProt P19801); assay: Activity on recombinant human DAO, Amplex Red method, 1 mM putrescine substrate; conditions: recombinant human DAO; for IC50: read-out: Inhibitory Activity (IC50, nM) DAO
# T1 construct: purchased R&D systems
# T1 sequence (P19801 20-751): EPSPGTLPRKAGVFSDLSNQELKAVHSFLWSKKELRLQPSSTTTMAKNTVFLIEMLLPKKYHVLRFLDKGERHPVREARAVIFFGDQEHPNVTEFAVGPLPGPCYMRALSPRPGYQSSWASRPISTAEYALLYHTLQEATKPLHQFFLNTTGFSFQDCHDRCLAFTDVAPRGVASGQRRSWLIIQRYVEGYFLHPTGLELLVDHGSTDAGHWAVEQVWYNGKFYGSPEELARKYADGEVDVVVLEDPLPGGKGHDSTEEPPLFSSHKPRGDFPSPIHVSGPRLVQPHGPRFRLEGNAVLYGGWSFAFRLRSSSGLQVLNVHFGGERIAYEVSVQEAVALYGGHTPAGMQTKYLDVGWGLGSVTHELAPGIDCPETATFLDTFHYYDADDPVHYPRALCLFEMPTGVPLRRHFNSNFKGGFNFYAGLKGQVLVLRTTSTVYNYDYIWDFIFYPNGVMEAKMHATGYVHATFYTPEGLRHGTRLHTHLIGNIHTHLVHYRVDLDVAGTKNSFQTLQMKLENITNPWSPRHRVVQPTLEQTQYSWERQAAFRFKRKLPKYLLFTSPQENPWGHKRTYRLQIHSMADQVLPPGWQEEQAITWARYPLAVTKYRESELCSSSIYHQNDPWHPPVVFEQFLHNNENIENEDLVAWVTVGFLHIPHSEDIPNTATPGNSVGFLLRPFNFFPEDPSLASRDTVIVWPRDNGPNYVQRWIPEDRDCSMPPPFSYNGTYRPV
# Protocol: (§1) The compounds according to the present technology were evaluated in terms of activity on recombinant human VAP-1 (R&D systems) by measuring the level of hydrogen peroxide in horseradish peroxidase (HRP)-coupled reaction using Amplex Red Hydrogen Peroxide Assay Kit (Molecular Probes, Invitrogen, USA). The experiment was carried out at room temperature using benzylamine as a substrate. In the HRP-coupled reaction, hydrogen peroxide oxidation of 10-acetyl-3,7-dihydroxyphenoxazine (Amplex Red reagent) produces resorufin, which is a highly fluorescent compound. Briefly, the test compound was dissolved in dimethyl sulfoxide (DMSO) at a concentration of 20 mM. The dose-response assessment was made by 1:3 serial dilution in DMSO, thereby creating an 8 point curve. The concentration of the upper part was controlled according to the efficacy of the compounds, followed by dilution with a reaction buffer solution to obtain a final DMSO concentration less than 1%. To each well of a 96 black well plate, human VAP-1 purified in 50 mM sodium phosphate buffer solution (pH7.4) was added. The test compounds dissolved in DMSO were incubated with the human VAP-1 enzymes at 37° C. for 30 minutes. After 30-minute incubation, each well is added with a reaction mixture containing 200 uM Amplex Red reagent prepared from 50 mM sodium phosphate buffer solution (pH 7.4), 1 mM benzylamine, and 1 U/mL HRP. Fluorescence intensity was measured at several time points during 1-2 hours using a microplate reader (Flexstation3, Molecular Devices) under the wavelength condition exciting at 544 nm and reading the emission at 590 nm. The inhibitory effect of the compounds was measured as a decrease (%) in the signal rate as compared to the control group without any inhibitor (only diluted DMSO). Data was fixed to a logistic model with four variables and IC50 value was calculated using GraphPad Prism program.
# (§2) In addition, the compounds according to the present technology were evaluated in terms of activity on a recombinant human MAO-A (monoamine oxidase-A, Sigma-Aldrich) and a recombinant human MAO-B (monoamine oxidase-B, Sigma-Aldrich) by using as substrates, 0.5 mM tyramine and 1 mM benzylamine, respectively, with a method similar to the activity evaluation method for recombinant human VAP-1. The compounds according to the present technology were also evaluated in terms of activity on a recombinant human DAO (diamine oxidase, R&D systems) by using as a substrate 1 mM putrescine with a method similar to the activity evaluation method for recombinant human VAP-1.
# recombinant human VAP-1 = target: T2, recombinant human VAP-1 (Homo sapiens, UniProt Q16853); assay: Activity on recombinant human VAP-1, Amplex Red HRP-coupled hydrogen peroxide assay, benzylamine substrate; conditions: recombinant human VAP-1, benzylamine substrate, read-out: Inhibitory Activity (IC50, nM) human VAP-1
# T2 construct: purchased R&D systems
# T2 sequence (Q16853 1-763): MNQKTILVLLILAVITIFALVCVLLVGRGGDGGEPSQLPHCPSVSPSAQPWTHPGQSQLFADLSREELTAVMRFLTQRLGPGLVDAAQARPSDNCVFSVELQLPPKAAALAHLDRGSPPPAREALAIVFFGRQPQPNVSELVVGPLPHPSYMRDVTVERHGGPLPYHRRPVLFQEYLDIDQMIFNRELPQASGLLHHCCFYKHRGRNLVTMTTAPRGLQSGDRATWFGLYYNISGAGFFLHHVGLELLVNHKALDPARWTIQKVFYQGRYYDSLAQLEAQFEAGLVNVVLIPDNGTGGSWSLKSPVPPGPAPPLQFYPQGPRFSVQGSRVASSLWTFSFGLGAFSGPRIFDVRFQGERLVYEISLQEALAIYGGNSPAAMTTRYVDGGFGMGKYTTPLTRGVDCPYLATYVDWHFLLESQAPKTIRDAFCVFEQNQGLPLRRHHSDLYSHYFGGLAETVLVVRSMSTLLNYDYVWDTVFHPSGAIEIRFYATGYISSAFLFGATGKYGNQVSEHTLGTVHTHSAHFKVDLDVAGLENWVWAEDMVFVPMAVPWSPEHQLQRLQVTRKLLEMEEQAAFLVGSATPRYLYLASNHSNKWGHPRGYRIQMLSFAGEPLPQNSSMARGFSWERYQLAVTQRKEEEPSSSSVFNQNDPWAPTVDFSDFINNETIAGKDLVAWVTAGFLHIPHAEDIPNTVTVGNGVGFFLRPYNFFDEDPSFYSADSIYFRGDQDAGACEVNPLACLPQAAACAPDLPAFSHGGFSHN
# Protocol: as §1
# [2] = target: T3, recombinant human MAO-B (monoamine oxidase-B) (Homo sapiens, UniProt P27338); assay: Activity on recombinant human MAO-B, Amplex Red method, 1 mM benzylamine substrate; conditions: 1 mM benzylamine
# T3 construct: purchased Sigma-Aldrich
# T3 sequence (P27338 1-520): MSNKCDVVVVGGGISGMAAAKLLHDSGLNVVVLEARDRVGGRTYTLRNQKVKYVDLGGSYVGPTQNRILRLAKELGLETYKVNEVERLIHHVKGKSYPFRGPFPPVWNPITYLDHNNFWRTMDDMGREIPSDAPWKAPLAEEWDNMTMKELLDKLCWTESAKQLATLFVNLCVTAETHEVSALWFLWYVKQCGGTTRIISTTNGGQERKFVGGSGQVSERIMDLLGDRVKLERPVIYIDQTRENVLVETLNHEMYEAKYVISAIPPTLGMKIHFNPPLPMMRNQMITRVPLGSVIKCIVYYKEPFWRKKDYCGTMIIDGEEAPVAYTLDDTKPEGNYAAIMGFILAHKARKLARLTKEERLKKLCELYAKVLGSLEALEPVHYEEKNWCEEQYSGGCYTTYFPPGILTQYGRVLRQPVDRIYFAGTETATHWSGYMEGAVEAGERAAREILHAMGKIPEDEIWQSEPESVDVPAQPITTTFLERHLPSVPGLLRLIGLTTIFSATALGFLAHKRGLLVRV
# Protocol: as §1, §2
# [3] = 1 mM putrescine, * = between 10 and 100 nM, ** = between 300 and 1000 nM
SMILES,"IC50 [1, 3] [nM]",IC50 (recombinant human VAP-1; 30 min preincubation at 37° C.) [nM],also measured
"NC/C(=C/F)Cn1ncn(-c2cc(F)c(Br)c(F)c2)c1=O [Example 19, 2-[(2Z)-2-(aminomethyl)-3-fluoroprop-2-en-1-yl]-4-(4-bromo-3,5-difluorophenyl)-2,4-dihydro-3H-1,2,4-triazol-3-one]",13,3.3,"IC50 ([2]; read-out: Inhibitory Activity (IC50, nM) MAO-B): 4.4 nM"
"Cc1c(-c2ccc(N3CCOCC3)nc2)cccc1-n1cnn(C/C(=C/F)CN)c1=O [Example 110, 2-[(2E)-2-(aminomethyl)-3-fluoroprop-2-en-1-yl]-4-{2-methyl-3-[6-(morpholin-4-yl)pyridin-3-yl]phenyl}-2,4-dihydro-3H-1,2,4-triazol-3-one]",,4.2,"Inhibitory Activity (IC50, nM) DAO [1, 3]: no inhibitory; Inhibitory Activity (IC50, nM) MAO-B [2]: no inhibitory"
"Cc1cc(-c2ccc(S(C)(=O)=O)cc2)ncc1-n1cnn(C/C(=C/F)CN)c1=O [Example 119, 2-[(2E)-2-(aminomethyl)-3-fluoroprop-2-en-1-yl]-4-{4-methyl-6-[4-(methylsulfonyl)phenyl]pyridin-3-yl}-2,4-dihydro-3H-1,2,4-triazol-3-one]",< 100,0.94,
"Cc1cc(-c2cccc(-c3nc[nH]n3)c2)ncc1-n1cnn(C/C(=C/F)CN)c1=O [Example 122, 2-[(2E)-2-(aminomethyl)-3-fluoroprop-2-en-1-yl]-4-{4-methyl-6-[3-(1H-1,2,4-triazol-3-yl)phenyl]pyridin-3-yl}-2,4-dihydro-3H-1,2,4-triazol-3-one]",< 100,0.77,
"Cc1cc(-c2ccc3nonc3c2)ncc1-n1cnn(C/C(=C/F)CN)c1=O [Example 125, 2-[(2E)-2-(aminomethyl)-3-fluoroprop-2-en-1-yl]-4-[6-(2,1,3-benzooxadiazol-5-yl)-4-methylpyridin-3-yl]-2,4-dihydro-3H-1,2,4-triazol-3-one]",< 100,1.2,
"CC(=O)Nc1nc2cc(-c3cc(C)c(-n4cnn(C/C(=C/F)CN)c4=O)cn3)ccc2s1 [Example 128, N-[5-(5-{1-[(2E)-2-(aminomethyl)-3-fluoroprop-2-en-1-yl]-5-oxo-1,5-dihydro-4H-1,2,4-triazol-4-yl}-4-methylpyridin-2-yl)-1,3-benzothiazol-2-yl]acetamide]",< 100,0.82,
"NC/C(=C\F)Cn1ncn(-c2ncc(-c3cccc(-c4nnn[nH]4)c3)s2)c1=O [Example 230, 2-[(2E)-2-(aminomethyl)-3-fluoroprop-2-en-1-yl]-4-{5-[3-(1H-tetrazol-5-yl)phenyl]-1,3-thiazol-2-yl}-2,4-dihydro-3H-1,2,4-triazol-3-one]",,,IC50 ([1]; 1 mM putrescine substrate): 2.7 nM; IC50 (recombinant human VAP-1): 0.53 nM
"CC(=O)Nc1cc(-c2cnc(-n3cnn(C/C(=C/F)CN)c3=O)s2)ccn1 [Example 231, N-[4-(2-{1-[(2E)-2-(aminomethyl)-3-fluoroprop-2-en-1-yl]-5-oxo-1,5-dihydro-4H-1,2,4-triazol-4-yl}-1,3-thiazol-5-yl)pyridin-2-yl]acetamide]",,,IC50 ([1]; 1 mM putrescine substrate): 0.086 nM; IC50 (recombinant human VAP-1): 0.94 nM
"NC/C(=C\F)Cn1ncn(-c2ncc(-c3ccc4c(c3)NC(=O)C4)s2)c1=O [Example 233, 6-(2-{1-[(2E)-2-(aminomethyl)-3-fluoroprop-2-en-1-yl]-5-oxo-1,5-dihydro-4H-1,2,4-triazol-4-yl}-1,3-thiazol-5-yl)-1,3-dihydro-2H-indol-2-one]",,,IC50 ([1]; 1 mM putrescine substrate): 1.2 nM; IC50 (recombinant human VAP-1): 1.7 nM

# More lines, main results first:
"IC50 [1, 3] [nM]",IC50 (recombinant human VAP-1; 30 min preincubation at 37° C.) [nM],SMILES,also measured
4200,8.2,"Cc1cc(N2CCNCC2)cnc1-n1cnn(C/C(=C/F)CN)c1=O [Example 131, 2-[(2E)-2-(aminomethyl)-3-fluoroprop-2-en-1-yl]-4-[3-methyl-5-(piperazin-1-yl)pyridin-2-yl]-2,4-dihydro-3H-1,2,4-triazol-3-one]",
520,3.2,"Cc1cc(-c2ccc(-c3nnc[nH]3)cc2)cnc1-n1cnn(C/C(=C\F)CN)c1=O [Example 135, 2-[(2Z)-2-(aminomethyl)-3-fluoroprop-2-en-1-yl]-4-{3-methyl-5-[4-(4H-1,2,4-triazol-3-yl)phenyl]pyridin-2-yl}-2,4-dihydro-3H-1,2,4-triazol-3-one]",
6100,0.62,"Cc1cc(-c2ccc(-c3nnc[nH]3)cc2)cnc1-n1cnn(C/C(=C/F)CN)c1=O [Example 136, 2-[(2E)-2-(aminomethyl)-3-fluoroprop-2-en-1-yl]-4-{3-methyl-5-[4-(4H-1,2,4-triazol-3-yl)phenyl]pyridin-2-yl}-2,4-dihydro-3H-1,2,4-triazol-3-one]",
1400,3.3,"Cc1cc(-c2cccc(-c3nnn[nH]3)c2)cnc1-n1cnn(C/C(=C/F)CN)c1=O [Example 144, 2-[(2E)-2-(aminomethyl)-3-fluoroprop-2-en-1-yl]-4-{3-methyl-5-[3-(1H-tetrazol-5-yl)phenyl]pyridin-2-yl}-2,4-dihydro-3H-1,2,4-triazol-3-one]",
